Tests used:
[1] = test system: Full-thickness Epiderm cultures (EFT-400, MatTek); assay: Cytotoxicity assay (MTT) after topical application to full-thickness skin cultures; type: cell-based; settings: 24-hour exposure; for Cell Viability: 10 μL topical, MTT, vs untreated control
Method: (§1) Full-thickness Epiderm cultures (EFT-400, MatTek) were used to determine toxicity in response to topical application of a test material (Steamchol).
The test material was provided as a powder. Test solutions were prepared by adding the appropriate amount of powdered material to 1 mL DMSO. Lower concentrations were made by serial dilution with 100% DMSO. The final test material concentrations and treatments are listed below: • 2% Steamchol (20,000 ug/mL) • 1% Steamchol (10,000 ug/mL) • 0.1% Steamchol (1000 ug/mL) • 0.01% Steamchol (100 ug/mL) • vehicle control (100% DMSO) • untreated control
Full-thickness skin cultures (EFT-400) were maintained as required to ensure viability; the cultures were equilibrated at 37° C. and 5% CO2 for 24 hours prior to application of test materials. Test material was applied to the surface of each culture using sterile techniques (10 μL applied to each culture). Two cultures were assigned to each treatment group. Two EFT cultures served as an untreated control (also referred to as negative control in FIG. 2), and two other EFT cultures served as a positive control (100 μL 1% Triton X-100).
Following a 24-hour incubation period with the test material, cultures were processed for cell toxicity analysis using an MTT [(3-4,5-dimethylthiazole-2-yl)2,5-diphenyltetrazoliumbromide] assay (reagents purchased from MatTek). Viable tissues converted MTT into a blue formazan salt that was detected by measuring absorbance at a specific wavelength of light (A570). Percent viability was calculated by comparing the A570 reading of the test cultures to the A570 of the untreated control culture, using the following formula: [Treated A570/Untreated A570]*100.

[2] = test system: Full-thickness Epiderm cultures (EFT-400, MatTek); assay: Previous viability assay; type: cell-based; settings: concentrations of 40.0, 13.3, 4.4, 1.5 ug/mL
Description: as §1

human skin fibroblasts = assay: [3H] cholesterol efflux in skin fibroblasts; type: cell-based; settings: 20 hours incubation, compared to untreated cells
Method: (§2) Steamchol was incubated with human skin fibroblasts for 20 hours to measure cholesterol loading in the presence of [^3H] cholesterol. After series of washing and adding efflux containing cholesterol acceptors, medium was collected and centrifuged and cell associated cholesterol was compared to effluxed cholesterol in the presence and absence of the similar FABAC. This research project also included quantification of mRNA of ABCA1 and direct measurement of ABCA1.
(§3) Similarly, cells were pre-incubated with [^3H] cholesterol, washed four times and then placed in an incubation medium with or without Aramchol for 20 hours. Following the incubation, radioactivity was measured separately in the medium and in the cells. Cholesterol efflux percentage was calculated as radioactivity in medium divided by the total radioactivity (cells+medium).

ABCA1 [3] = assay: Direct measurement of ABCA1 protein in skin fibroblasts; type: cell-based, human; settings: efflux in the presence of FABAC, compared to untreated cells
Method: as §2, §3

ABCA1 [4] = assay: Taqman gene expression in Epiderm FT skin culture: ABCA1 mRNA; type: cell-based, human; settings: 0.5% (5000 ug/mL) in DMSO, 24 hours post-application, vs DMSO control
Method: A full-thickness in vitro skin culture model, Epiderm FT (MatTek, MA), was treated with Steamchol. Steamchol in DMSO (0.5%, 5000 ug/mL) was applied to the surface of each test culture and cells were collected 24 hours post-application. Control cells were similarly treated with DMSO without Steamchol.
Tissues were collected in RNA later for gene expression analysis. Gene expression was analyzed using validated Taqman gene expression assays in Taqman Low Density Array (TLDA) format. 94 genes that regulate a variety of known functions in skin were analyzed including the ABCA1 and SCD1 genes. The experimental set up was conducted in a 96-well format using validated Taqman gene expression assays. Each gene was assayed in duplicates. Statistics were carried out using the StatMiner software v4.2 (unpaired t-tests, p≦0.05, N=4) to compare the Steamchol group to the DMSO control group.

Compound | Cell Viability ([1]; 0.01% Steamchol (100 ug/mL) in DMSO) | Cell Viability ([1]; 0.1% Steamchol (1000 ug/mL) in DMSO) | Cell Viability ([1]; 1% Steamchol (10,000 ug/mL) in DMSO) | Cell Viability ([1]; 2% Steamchol (20,000 ug/mL) in DMSO) | Cell viability compared to the untreated control ([1]; all dilutions tested (0.01%-2% in DMSO)) | Toxicity in viability assay [2] | Cholesterol efflux in fibroblasts (human skin fibroblasts) | ABCA1 protein concentration increase (ABCA1 [3]) | Change in mRNA levels of ABCA1 (ABCA1 [4])
CCCCCCCCCCCCCCCCCC(=O)N[C@H]1CC[C@@]2(C)[C@@H](C1)C[C@@H](O)[C@@H]1[C@@H]2C[C@H](O)[C@]2(C)[C@@H]([C@H](C)CCC(=O)O)CC[C@@H]12 [Steamchol, 3β-stearylamido-7α,12α, dihidroxy-5β-cholan-24-oic acid] | 100.41% | 99.98% | 96.88% | 93.89% | ~100% | no toxicity was observed | significantly enhanced | approximately 2 fold | No significant change
CCCCCCCCCCCCCCCCCCCC(=O)N[C@H]1CC[C@@]2(C)[C@@H](C1)C[C@@H](O)[C@@H]1[C@@H]2C[C@H](O)[C@]2(C)[C@@H]([C@H](C)CCC(=O)O)CC[C@@H]12 [Aramchol, 3β-arachidylamido-7α,12α, dihidroxy-5β-cholan-24-oic acid] |  |  |  |  |  |  | significantly enhanced | approximately 2 fold | 
